Measurements: ChEMBL document CHEMBL5625228, “Design, synthesis, and bioactivity evaluation of novel amide/sulfonamide derivatives as potential anti-inflammatory agents against acute lung injury and ulcerative colitis” (Eur J Med Chem, 2023)
Active and inactive are the calls of the source. The calls are words filed in the database; no cut-off is given here.

Key:
[1] = Half life in Sprague-Dawley rat at 10 mg/kg, po measured upto 24 hrs by LC-MS analysis; format: ADME, organism-based; conditions: in vivo
Mus musculus [2] = test: Antiinflammatory activity against LPS-induced acute lung injury C57BL/6 mouse model assessed as pulmonary congestion in lung at 20 mg/kg, IG preincubated with compound for 30 mins followed by LPS-induction and measured after 6 hrs by H and E staining based analysis; format: functional, organism-based; conditions: time 390.0 min
Mus musculus [3] = test: Antiinflammatory activity against LPS-induced acute lung injury C57BL/6 mouse model assessed as reduction in pulmonary edema by measuring lung wet to dry ratio at 20 mg/kg, IG pretreated with compound for 30 mins followed by LPS-induction and measured after 6 hrs; format: functional, organism-based; conditions: time 390.0 min
Mus musculus [4] = test: Antiinflammatory activity against LPS-induced acute lung injury C57BL/6 mouse model assessed as inflammatory infiltration in lung at 20 mg/kg, IG preincubated with compound for 30 mins followed by LPS-induction and measured after 6 hrs by H and E staining based analysis; format: functional, organism-based; conditions: time 390.0 min
[5] = AUC (0 to t) in Sprague-Dawley rat at 10 mg/kg, po measured upto 24 hrs by LC-MS analysis; format: ADME, organism-based; conditions: in vivo
J774.A1 [6] = test: Antiinflammatory activity against LPS-induced mouse J774.A1 cells assessed as downregulation of IL-6 mRNA level preincubated with compound for 30 mins followed by LPS-induction and measured after 6 hrs by qPCR analysis; format: functional, cell-based; conditions: time 390.0 min
J774.A1 [7] = test: Antiinflammatory activity against LPS-induced mouse J774.A1 cells assessed as reduction in p65 nuclear translocation at 20 uM incubated for 2 hrs by DAPI staining based immunofluorescence analysis; format: functional, cell-based
Mus musculus [8] = test: Antiinflammatory activity against DSS-induced acute colitis C57BL/6 mouse model assessed as attenuation of white pulp at 5 mg/kg, po pretreated with DSS for 7 days followed by compound addition for every day for 10 days by H and E staining based analysis; format: functional, organism-based; conditions: time 10.0 day
[9] = AUC (0 to infinity) in Sprague-Dawley rat at 10 mg/kg, po measured upto 24 hrs by LC-MS analysis; format: ADME, organism-based; conditions: in vivo
J774.A1 [10] = test: Antiinflammatory activity against mouse J774.A1 cells assessed as inhibition of LPS-induced IL-6 release preincubated with compound for 30 mins followed by LPS-induction and measured after 24 hrs by ELISA analysis; format: functional, cell-based
[11] = AUC (0 to infinity) in Sprague-Dawley rat at 1 mg/kg, iv measured upto 24 hrs by LC-MS analysis; format: ADME, organism-based; conditions: in vivo
[12] = Apparent volume of distribution in Sprague-Dawley rat at 1 mg/kg, iv measured upto 24 hrs by LC-MS analysis; format: ADME, organism-based; conditions: in vivo, read-out: Vz

Compound: O=[N+]([O-])c1ccc(N2CCN(c3ccc(S(=O)(=O)NCc4ccccn4)cc3[N+](=O)[O-])CC2)cc1
- half-life [1]: 7.1 h
- Activity (Mus musculus [2]): Active
- Activity (Mus musculus [3]): Active
- Activity (Mus musculus [4]): Active
- AUC(0-t) at 24 h [5]: 1060 ng·h/mL
- Activity (J774.A1 [6]): Active
- Activity (J774.A1 [7]): Active
- Activity (Mus musculus [8]): Active
- AUC [9]: 1183.5 ng·h/mL
- IC50 (J774.A1 [10]): 610 nM
- AUC(0-inf) [11]: 1120 ng·h/mL
- Vd [12]: 2.3 L/kg
